Reference: patent publication US8969389B2, “Substituted 6-methylnicotinamides as mGluR5 positive allosteric modulators” (Vanderbilt University, priority 2010, dated 2015)

Target: T1, human mGluR5 (Homo sapiens, UniProt P41594)
T1 construct: expressed in transfected cells; host or cells: HEK cells, H10H cell line
Assay: Potentiation of glutamate response in HEK cells transfected with human mGluR5 (H10H cell line), Ca2+ fluorescence, FDSS
Format: cell-based
Details: read-out: hmGluR5 EC50 (H10H cell line)
Protocol: (§1) Human embryonic kidney (HEK) cells transfected with rat mGluR5 were plated in clear bottom assay plates for assay in a Functional Drug Screening System (FDSS). In the alternative assay, HEK cells transfected with human mGluR5 (H10H cell line) were plated for assay in the FDSS. […] The cells were loaded with a Ca^2+-sensitive fluorescent dye (e.g., Fluo-4), and the plates were washed and placed in the FDSS instrument. After establishment of a fluorescence baseline for twelve seconds, the compounds of the present invention were added to the cells, and the response in cells was measured. Five minutes later, an mGluR5 agonist (e.g., glutamate, 3,5-dihydroxyphenylglycine, or quisqualate) was added to the cells, and the response of the cells was measured. Potentiation of the agonist response of mGluR5 by the compounds in the present invention was observed as an increase in response to non-maximal concentrations of agonist (here, glutamate) in the presence of compound compared to the response to agonist in the absence of compound.
(§2) The above described assay operated in two modes. In the first mode, a range of concentrations of the present compounds were added to cells, followed by a single fixed concentration of agonist. If a compound acted as a potentiator, an EC50 value for potentiation and a maximum extent of potentiation by the compound at this concentration of agonist was determined by non-linear curve fitting. In the second mode, several fixed concentrations of the present compounds were added to various wells on a plate, followed by a range of concentrations of agonist for each concentration of present compound; the EC50 values for the agonist at each concentration of compound were determined by non-linear curve fitting. A decrease in the EC50 value of the agonist with increasing concentrations of the present compounds (a leftward shift of the agonist concentration-response curve) is an indication of the degree of mGluR5 potentiation at a given concentration of the present compound. An increase in the EC50 value of the agonist with increasing concentrations of the present compounds (a rightward shift of the agonist concentration-response curve) is an indication of the degree of mGluR5 antagonism at a given concentration of the present compound. The second mode also indicates whether the present compounds also affect the maximum response to mGluR5 to agonists.

T1 sequence (P41594 21-1212): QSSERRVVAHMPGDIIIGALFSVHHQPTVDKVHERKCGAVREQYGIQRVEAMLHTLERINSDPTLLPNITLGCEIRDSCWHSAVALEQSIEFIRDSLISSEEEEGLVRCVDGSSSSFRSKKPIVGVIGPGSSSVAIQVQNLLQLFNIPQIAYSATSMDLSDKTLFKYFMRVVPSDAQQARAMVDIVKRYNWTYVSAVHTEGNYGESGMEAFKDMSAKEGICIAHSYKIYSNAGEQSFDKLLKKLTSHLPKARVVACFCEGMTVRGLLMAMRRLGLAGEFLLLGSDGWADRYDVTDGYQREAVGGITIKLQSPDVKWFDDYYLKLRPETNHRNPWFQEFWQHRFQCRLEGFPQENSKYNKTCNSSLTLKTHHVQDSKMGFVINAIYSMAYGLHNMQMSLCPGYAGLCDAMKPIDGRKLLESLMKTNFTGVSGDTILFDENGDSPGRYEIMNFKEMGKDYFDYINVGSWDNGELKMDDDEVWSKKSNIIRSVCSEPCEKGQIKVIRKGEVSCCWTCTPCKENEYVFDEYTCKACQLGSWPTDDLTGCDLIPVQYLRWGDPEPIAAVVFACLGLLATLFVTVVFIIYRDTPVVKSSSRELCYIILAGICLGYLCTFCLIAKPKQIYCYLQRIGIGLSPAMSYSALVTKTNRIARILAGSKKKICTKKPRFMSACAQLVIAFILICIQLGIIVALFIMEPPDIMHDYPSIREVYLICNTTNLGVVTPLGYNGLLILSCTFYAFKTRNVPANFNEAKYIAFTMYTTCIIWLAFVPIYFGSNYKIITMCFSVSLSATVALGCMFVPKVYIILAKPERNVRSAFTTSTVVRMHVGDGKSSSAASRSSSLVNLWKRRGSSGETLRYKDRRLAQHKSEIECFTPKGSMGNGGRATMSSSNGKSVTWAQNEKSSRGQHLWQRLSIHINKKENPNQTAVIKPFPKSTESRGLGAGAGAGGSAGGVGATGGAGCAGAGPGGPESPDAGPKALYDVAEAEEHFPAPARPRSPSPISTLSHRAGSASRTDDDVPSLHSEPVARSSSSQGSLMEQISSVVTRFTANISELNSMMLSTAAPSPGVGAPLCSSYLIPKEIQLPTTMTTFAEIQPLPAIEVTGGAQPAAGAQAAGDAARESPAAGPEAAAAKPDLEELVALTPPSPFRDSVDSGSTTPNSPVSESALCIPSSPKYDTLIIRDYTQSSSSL

| SMILES | EC50 |
| --- | --- |
| O=C(N[C@@H]1C[C@H]2CC[C@@H]1C2)c1ccc(COc2cccc(F)c2)nc1 | 0.17 µM |
| CC(NC(=O)c1ccc(COc2cccc(F)c2)nc1)C1CCCOC1 (centres unmarked) | 0.44 µM |
| O=C(N[C@H]1C[C@@H]2CC[C@H]1C2)c1ccc(COc2cccc(F)c2)nc1 | 0.55 µM |
| C[C@@H](NC(=O)c1ccc(COc2ccnc(Cl)c2)nc1)C1CCCCC1 | 1.5 µM |
| C[C@@H](NC(=O)c1ccc(COc2ccnc(Cl)c2)nc1)C(C)(C)C | 2.3 µM |
| CC(NC(=O)c1ccc(COc2cccc(F)c2)nc1)C(F)(F)F (centres unmarked) | 3.2 µM |
| CC(NC(=O)c1ccc(COc2cccc(F)c2)nc1)c1nccs1 (centres unmarked) | > 10 µM |
| O=C(N[C@@H]1C[C@@H]2CC[C@H]1C2)c1ccc(COc2cccc(F)c2)nc1 | > 10 µM |
| O=C(NC(c1ccc(F)cc1)C(F)(F)F)c1ccc(COc2cccc(F)c2)nc1 (centres unmarked) | > 10 µM |
| C[C@@H](NC(=O)c1ccc(COc2cncc(Cl)c2)nc1)C1CCCCC1 | > 10 µM |
| C[C@@H](NC(=O)c1ccc(COc2cncc(Cl)c2)nc1)C(C)(C)C | > 10 µM |
| C[C@@H](NC(=O)c1ccc(COc2cncc(F)c2)nc1)C(C)(C)C | > 10 µM |
| CC1(CNC(=O)c2ccc(COc3cccc(F)c3)nc2)COC1 | > 10 µM |
| C[C@@H](NC(=O)c1ccc(COc2cncnc2)nc1)C(C)(C)C | > 10 µM |
| O=C(NC1CC(O)(C(F)(F)F)C1)c1ccc(COc2cccc(F)c2)nc1 (centres unmarked) [drawing 172] | > 10 µM |
| O=C(NC1CC(O)(C(F)(F)F)C1)c1ccc(COc2cccc(F)c2)nc1 (centres unmarked) [drawing 173] | > 10 µM |
| C[C@H](NC(=O)c1ccc(COc2cccc(F)c2)nc1)C(C)(C)C [drawing 189] | > 10 µM |

Results, then the compound that gave them:

| EC50 | SMILES |
| --- | --- |
| 0.73 µM | O=C(N[C@H]1C[C@H]2CC[C@@H]1C2)c1ccc(COc2cccc(F)c2)nc1 |
| 1.9 µM | CC(NC(=O)c1ccc(COc2cccc(F)c2)nc1)C1CCCCO1 (centres unmarked) |
| 2.7 µM | C[C@@H](NC(=O)c1ccc(COc2cncc(F)c2)nc1)C1CCCCC1 |
| > 10 µM | CC1(O)CC(NC(=O)c2ccc(COc3cccc(F)c3)nc2)C1 (centres unmarked) |
| > 10 µM | O=C(NC(c1ccccn1)C(F)(F)F)c1ccc(COc2cccc(F)c2)nc1 (centres unmarked) |
| > 10 µM | O=C(NC1(c2ccccn2)CC1)c1ccc(COc2cccc(F)c2)nc1 |
| > 10 µM | CC1(CCNC(=O)c2ccc(COc3cccc(F)c3)nc2)COC1 |
| > 10 µM | C[C@@H](NC(=O)c1ccc(COc2cncc(C(F)(F)F)c2)nc1)C1CCCCC1 |
| > 10 µM | Cc1cc(OCc2ccc(C(=O)N[C@H](C)C3CCCCC3)cn2)ccn1 |
| > 10 µM | C[C@@H](NC(=O)c1ccc(COc2cncc(C(F)(F)F)c2)nc1)C(C)(C)C |
| > 10 µM | Cc1cc(OCc2ccc(C(=O)N[C@H](C)C(C)(C)C)cn2)ccn1 |
| > 10 µM | CC(NC(=O)c1ccc(COc2cccc(F)c2)nc1)C(C)(C)O (centres unmarked) |
| > 10 µM | C[C@@H](N(C)C(=O)c1ccc(COc2cccc(F)c2)nc1)C(C)(C)C |

Target: T2, rat mGluR5 (Rattus norvegicus, UniProt P31424)
T2 construct: expressed in transfected cells; host or cells: HEK (human embryonic kidney) cells
Assay: Potentiation of glutamate response in HEK cells transfected with rat mGluR5 (Ca2+ fluorescence, FDSS)
Format: cell-based
Details: HEK cells transfected with rat mGluR5; read-out: rmGlu5 PAM EC50
Protocol: as §1, §2

T2 sequence (P31424 21-1203): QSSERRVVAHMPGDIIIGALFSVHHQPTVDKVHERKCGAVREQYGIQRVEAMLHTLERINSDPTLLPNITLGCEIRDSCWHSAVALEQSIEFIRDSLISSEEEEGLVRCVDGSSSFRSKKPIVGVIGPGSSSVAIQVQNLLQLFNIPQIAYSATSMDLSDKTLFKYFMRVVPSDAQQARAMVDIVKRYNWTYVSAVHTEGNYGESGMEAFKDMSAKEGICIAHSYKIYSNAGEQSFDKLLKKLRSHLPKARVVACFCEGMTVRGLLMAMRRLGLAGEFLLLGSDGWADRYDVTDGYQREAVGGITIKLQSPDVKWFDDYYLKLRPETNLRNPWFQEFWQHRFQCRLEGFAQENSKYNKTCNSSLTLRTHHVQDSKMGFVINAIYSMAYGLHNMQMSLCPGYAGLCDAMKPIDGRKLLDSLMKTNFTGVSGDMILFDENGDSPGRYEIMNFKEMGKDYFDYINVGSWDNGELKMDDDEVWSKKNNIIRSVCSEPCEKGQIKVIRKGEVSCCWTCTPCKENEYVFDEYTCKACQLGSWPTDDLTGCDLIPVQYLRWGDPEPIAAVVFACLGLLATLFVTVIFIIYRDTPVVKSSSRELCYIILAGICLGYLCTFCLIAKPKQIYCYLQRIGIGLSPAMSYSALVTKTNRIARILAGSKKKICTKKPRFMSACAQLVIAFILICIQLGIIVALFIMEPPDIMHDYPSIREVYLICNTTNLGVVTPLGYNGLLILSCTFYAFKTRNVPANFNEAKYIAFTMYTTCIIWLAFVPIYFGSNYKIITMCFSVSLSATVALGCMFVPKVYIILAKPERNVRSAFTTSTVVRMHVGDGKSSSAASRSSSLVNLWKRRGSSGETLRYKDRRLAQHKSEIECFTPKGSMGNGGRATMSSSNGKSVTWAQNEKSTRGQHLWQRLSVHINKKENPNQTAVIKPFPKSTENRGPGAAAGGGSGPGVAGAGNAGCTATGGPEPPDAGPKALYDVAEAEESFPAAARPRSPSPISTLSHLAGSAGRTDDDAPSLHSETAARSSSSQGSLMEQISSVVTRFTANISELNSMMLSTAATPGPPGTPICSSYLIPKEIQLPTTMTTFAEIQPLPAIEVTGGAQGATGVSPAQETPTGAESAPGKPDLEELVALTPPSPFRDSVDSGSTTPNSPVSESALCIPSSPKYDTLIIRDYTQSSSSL

| EC50 | SMILES |
| --- | --- |
| 0.257 µM | C[C@@H](NC(=O)c1ccc(COc2ccccc2)nc1)C1CCCCC1 [drawing 78] |
| 0.309 µM | C[C@@H](NC(=O)c1ccc(COc2cc(F)cc(F)c2)nc1)C1CCCCC1 [drawing 81] |
| 4.5 µM | C[C@@H](NC(=O)c1ccc(COc2cccnc2)nc1)C1CCCCC1 [drawing 107] |
| 4.9 µM | C[C@@H](NC(=O)c1ccc(COc2cccnc2)nc1)C1CCCCC1 [drawing 109] |
| > 10 µM | O=C(NC1CCc2ccccc21)c1ccc(COc2ccccc2)nc1 (centres unmarked) [drawing 113] |
| > 10 µM | O=C(NC1CCc2ccccc21)c1ccc(COc2ccccc2)nc1 (centres unmarked) [drawing 138] |
| > 10 µM | C[C@H](NC(=O)c1ccc(COc2cc(F)cc(F)c2)nc1)C1CCCCC1 [drawing 149] |
| > 10 µM | C[C@H](NC(=O)c1ccc(COc2cccc(F)c2)nc1)C1CCCCC1 [drawing 152] |
